Reference: patent US11078221B2, “Phosphorodiamidates and other phosphorus derivatives of fingolimod and related S1P receptor modulators” (UNIVERSITY COLLEGE CARDIFF CONSULTANTS LTD, priority 2017, dated 2021)

Experiments:
[1] = tested on: NPC1 and −2; details: mice, clinically relevant doses, cited from earlier work
[2] = tested on: human NPC1 mutant fibroblasts; details: cited from earlier work
[3] = B95a cell lysate experiment (31P NMR); type: in vitro ADME; details: marmoset (cotton-top tamarin), B95a cell lysate; pH 7.6, 37 Celsius
Procedure: (§1) 4 mg of pentyl (2S)-2-[({2-amino-3-hydroxy-2-[2-(4-octylpheny)ethyl]propoxy}(4-methoxyphenoxy)phosphoryl)amino]propanoate are dissolved in a mixture of 150 μL of acetone d6 and 100 μL of trizma buffer (pH=7.6). The solution is transferred into an NMR tube. The ^31P spectrum is recorded (64 scans).
(§2) To the blank sample in the NMR tube 150 μL of B95a cell lysate (6.000.000 cell/m L) are added and then ^31P spectra are recorded at 37 Celsius (512 scans, 600 sec delay, 20 experiments).

[4] = tested on: B95a cell lysate; assay: B95a cell lysate experiment (31P NMR); type: in vitro ADME; details: pH 7.6, 37 Celsius, FIG. 4
Procedure: as §1, §2

[5] = Human serum stability (31P NMR); type: in vitro ADME
[6] = target: T1, Carboxypeptidase Y (Saccharomyces cerevisiae, UniProt P00729); assay: Carboxypeptidase Y experiment (31P NMR); type: in vitro ADME
T1 construct: purchased Aldrich
T1 sequence (P00729 112-532): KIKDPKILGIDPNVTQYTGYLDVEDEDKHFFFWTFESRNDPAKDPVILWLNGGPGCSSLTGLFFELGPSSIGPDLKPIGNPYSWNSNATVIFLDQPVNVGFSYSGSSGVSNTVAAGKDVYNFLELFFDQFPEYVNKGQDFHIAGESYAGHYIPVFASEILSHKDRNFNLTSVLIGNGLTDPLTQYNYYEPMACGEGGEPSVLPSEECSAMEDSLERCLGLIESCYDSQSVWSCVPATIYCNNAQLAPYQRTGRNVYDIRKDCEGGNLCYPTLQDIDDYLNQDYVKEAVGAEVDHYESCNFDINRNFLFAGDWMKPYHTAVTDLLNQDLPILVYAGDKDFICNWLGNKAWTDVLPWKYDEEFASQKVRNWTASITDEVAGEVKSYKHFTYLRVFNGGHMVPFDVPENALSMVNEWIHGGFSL
Procedure: Blank in acetone d6 alone (No trizma): 1-2 mg of pentyl (2S)-2-[({2-amino-3-hydroxy-2-[2-(4-octylphenethyl]propoxy}(4-methoxyphenoxy) phosphoryl)amino]propanoate is dissolved in 150 μL of acetone d6 and the solution transferred into an NMR tube. The ^31P spectrum is recorded (16 scans are sufficient).
The sample in the NMR tube is diluted with 100 μL of Trizma buffer (pH=7.6). 0.1 mg of Carboxypeptidase Y (Aldrich) is then dissolved in 150 μL of Trizma buffer and the resulting solution is added to the NMR tube. ^31P NMR spectra are then recorded (512 scans, 600 sec delay, 20 experiments.) FIG. 1

SMILES	cholesterol ([1]; SphK2-dependent)	expression of NPC1 and −2 ([1]; brain and liver)	accumulation of cholesterol and glycosphingolipids [2]	expression of NPC1 and −2 [2]	half-life at 10 mg/mL [3]	processing in B95a cell lysate [4]	stability in human serum ([5]; DMSO d6 / Trizma buffer pH 7.6)	time over which the prodrug is stable in human serum ([5]; FIG. 3)	activation of the prodrug by the esterase ([6]; acetone d6 / Trizma buffer, Carboxypeptidase Y, FIG. 1)	half-life ([6]; yeast (Saccharomyces cerevisiae), Carboxypeptidase Y in Trizma buffer / acetone d6, acetone d6 / Trizma buffer pH 7.6, read-out: half-life in the presence of Carboxypeptidase Y)
CCCCCCCCc1ccc(CCC(N)(CO)CO)cc1 [FTY720, Fingolimod]	decreased cholesterol	increased expression of NPC1 and −2 in brain and liver	significantly reduced the accumulation of cholesterol and glycosphingolipids	greatly increased expression of NPC1 and −2	–	–	–	–	–	–
CCCCCCCCc1ccc(CCC(N)(CO)COP(=O)(N[C@@H](C)C(=O)OCCCCC)Oc2ccc(OC)cc2)cc1 (stereo partly drawn) [pentyl (2S)-2-[({2-amino-3-hydroxy-2-[2-(4-octylphenyl)ethyl]propoxy}(4-methoxyphenoxy)phosphoryl)amino]propanoate]	–	–	–	–	664 min	processed to release the active monophosphorylated analogue	stable in human serum	at least 665 minutes	rapidly activated by the esterase	2110 min
